Each block holds one compound with its values, some of them ahead of it. Calls of active or inactive are those of the source. No cut-off for these calls is given here.
How the values were obtained:
[1] = target: Elastase (Pseudomonas aeruginosa (strain ATCC 15692 / PAO1 / 1C / PRS 101 / LMG12228)) (UniProt P14756); test: Antagonist activity at lasB in Pseudomonas aeruginosa harboring lasB-gfp gene assessed as inhibition of […]-induced quorum sensing by green fluorescence protein reporter assay
[2] = Agonist activity at lasB in Escherichia coli harboring lasB-gfp gene by green fluorescence protein reporter assay
[3] = Antagonist activity at luxI in Escherichia coli harboring luxI-gfp gene assessed as inhibition of 3-oxo-C6-HSL-induced quorum sensing by green fluorescence protein reporter assay
[4] = system: Pseudomonas aeruginosa; test: (§1) Antagonist activity at rhlA in Pseudomonas aeruginosa harboring rhlA-gfp gene assessed as inhibition of […]-induced quorum sensing by green fluorescence protein reporter assay
[5] = as §1

Sequence of Elastase (Pseudomonas aeruginosa (strain ATCC 15692 / PAO1 / 1C / PRS 101 / LMG12228)) (P14756 198-498 limits assumed): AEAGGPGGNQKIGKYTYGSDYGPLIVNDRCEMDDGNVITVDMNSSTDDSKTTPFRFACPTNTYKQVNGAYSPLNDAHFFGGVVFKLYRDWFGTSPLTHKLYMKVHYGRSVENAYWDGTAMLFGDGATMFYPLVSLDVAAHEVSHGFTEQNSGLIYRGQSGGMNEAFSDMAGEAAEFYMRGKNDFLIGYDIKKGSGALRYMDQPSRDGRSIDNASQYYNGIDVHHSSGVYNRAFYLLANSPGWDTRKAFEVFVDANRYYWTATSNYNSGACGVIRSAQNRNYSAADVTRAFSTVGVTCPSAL

Structure (SMILES): CCCCc1cn(CC(=O)N[C@H]2CCOC2=O)nn1
inhibition [1]: inactive | EC50 [2]: 57 µM | IC50 [3]: 751 µM | inhibition [4]: inactive

Structure (SMILES): O=C(Cn1cc(C2CC2)nn1)N[C@H]1CCOC1=O
IC50 [3]: 88 µM | IC50 [5]: 799 µM

EC50 [2]: 8 µM
Structure (SMILES): O=C(Cn1cc(CC2CCCCC2)nn1)N[C@H]1CCOC1=O

Structure (SMILES): [N-]=[N+]=Nc1ccc(C(=O)N[C@H]2CCOC2=O)cc1
IC50 [3]: 244 µM | inhibition [4]: inactive

Structure (SMILES): O=C(Cn1cc(C2CCCC2)nn1)N[C@H]1CCOC1=O
EC50 [2]: 3 µM | IC50 [3]: 50 µM | IC50 [5]: 898 µM

Structure (SMILES): O=C(Cn1cc(CSc2ccccc2)nn1)N[C@H]1CCOC1=O
EC50 [2]: 2 µM | IC50 [3]: 602 µM | inhibition [4]: inactive

Structure (SMILES): CCCCCCc1cn(CC(=O)N[C@H]2CCOC2=O)nn1
EC50 [2]: 12 µM | IC50 [3]: 578 µM | inhibition [4]: inactive

Structure (SMILES): O=C(Cn1cc(-c2ccsc2)nn1)N[C@H]1CCOC1=O
IC50 [3]: 55 µM | IC50 [5]: 1030 µM

Structure (SMILES): [N-]=[N+]=Nc1cccc(C(=O)N[C@H]2CCOC2=O)c1
inhibition [1]: inactive | IC50 [3]: 223 µM | inhibition [4]: inactive

Structure (SMILES): Nc1ccc(-n2cc(-c3ccc(C(=O)N[C@H]4CCOC4=O)cc3)nn2)cc1
inhibition [1]: inactive | IC50 [3]: 95 µM | inhibition [4]: inactive

Structure (SMILES): O=C(Cn1cc(-c2ccccc2)nn1)N[C@H]1CCOC1=O
inhibition [1]: inactive | IC50 [3]: 192 µM | inhibition [4]: inactive

Structure (SMILES): O=Cc1cccc(-n2cc(CCC(=O)N[C@H]3CCOC3=O)nn2)c1
EC50 [2]: 71 µM | IC50 [3]: 5 µM | inhibition [4]: inactive

Structure (SMILES): CCCc1cn(CC(=O)N[C@H]2CCOC2=O)nn1
IC50 [3]: 71 µM | IC50 [5]: 927 µM

Structure (SMILES): O=C(Cn1cc(C2CCCCC2)nn1)N[C@H]1CCOC1=O
EC50 [2]: 44 µM | IC50 [3]: 342 µM | inhibition [4]: inactive

EC50 [2]: 1 µM
Structure (SMILES): CCCCCc1cn(CC(=O)N[C@H]2CCOC2=O)nn1

EC50 [2]: 2 µM
Structure (SMILES): Nc1cccc(-n2cc(CCC(=O)N[C@H]3CCOC3=O)nn2)c1
